{
  "source": "patent US12194027B2",
  "about": "“Small molecule inhibitors of GPCR GPR68 and related receptors for treating cancer, glioblastoma, and other indications” (UNIVERSITY OF MARYLAND, BALTIMORE, priority 2019, dated 2025)",
  "key": {"GPR68/OGR1": {"molecular_target": "GPR68/OGR1 (Homo sapiens (Human), UniProt Q15743)", "sequence (Q15743 whole entry)": "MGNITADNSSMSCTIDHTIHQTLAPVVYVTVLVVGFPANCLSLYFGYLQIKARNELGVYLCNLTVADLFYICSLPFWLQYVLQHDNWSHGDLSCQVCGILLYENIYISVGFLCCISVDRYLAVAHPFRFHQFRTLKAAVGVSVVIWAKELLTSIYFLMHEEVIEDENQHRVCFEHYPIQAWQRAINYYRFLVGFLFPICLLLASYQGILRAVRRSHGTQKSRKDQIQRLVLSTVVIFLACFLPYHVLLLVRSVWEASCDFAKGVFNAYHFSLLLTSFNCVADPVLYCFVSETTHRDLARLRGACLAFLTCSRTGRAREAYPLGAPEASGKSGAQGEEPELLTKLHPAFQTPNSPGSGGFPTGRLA", "test": "inhibition of GPR68/OGR1 in CHEM1-OGR1 cells, Fluo-8 calcium response to acidified media", "format": "cell-based", "details": "acidified media pH 6.4, Fluo-8", "procedure": "Briefly, the methods were: On the day before the assay 20,000 cells per well of CHEM1-OGR1 cells were plated in 10% DMEM containing 10% FBS and 1% Pen/Strep into a 96 well plate. After 24 hours media was removed and cells were stained with 80 uL Fluo-8 calcium indicator dye according to manufacturer's protocol. After staining cells were treated with 20 uL of 4× concentration of test compounds. Using kinetic imaging in the Lionheart HCS fluorescence intensity was continuously measure at 10 frames per second, for 5 seconds before 100 μL of acidified media was added to the well resulting in a pH of 6.4. A ratio of fluorescence intensities prior to addition and at peak were calculated and averaged. The resulting data were platted and using a 4 parameter logistic regression EC50 for each test compound was determined."}, "GPR68 [1]": {"molecular_target": "T1, GPR68 (Homo sapiens (Human), UniProt Q15743)", "T1 sequence (Q15743 whole entry, looked up)": "as the sequence (Q15743 whole entry) above", "test": "GPR68 inhibitory activity of OGM analogs (Table 5)", "format": "cell-based", "procedure": "GPCR profiling assays were performed by Millipore (St. Louis, MO) using in cells expressing Gα15, a promiscuous G protein that enhances GPCR coupling to downstream Ca2+ signaling pathways.\nSince GPCRs represent >30% of targets for FDA-approved small molecules and are known to modulate cell migration, activity against 158 GPCRs was assessed based on their chemical structures. GPCRs (158) were tested for agonist and antagonist activity at 10 μM. […] Chemical segregation analysis of zebrafish phenotype was conducted to further identify the inhibitory activity responsible for the zebrafish phenotype. […] The identities of the R groups in FIG. 2B are shown below in Table 5.\n(§1) Chem1-GPR68 reporter cells were treated with 20 uM OM8345 for 2 hours and then rinsed with HBSS. […] The GPR68 inhibitory activity of OGM analogs segregated with the ability of the molecule to induce the phenotype in zebrafish. Neural crest progenitors labeled with In situ hybridization of FoxD3 show normal formation of the progenitor pool."}, "GPR68 [2]": {"molecular_target": "T1, GPR68", "test": "Chem-1 OGR1/GPR68 recovery assay after inhibitor washout", "format": "cell-based", "procedure": "Chem-1 OGR1/GPR68 cells from Millipore™ (St. Louis, MO) were plated in 96-well format and stained with Fluo-8. Using the Lionheart FX (Biotek™) a baseline for 3 seconds was observed before the medium was acidified using an automated injector to reach pH 6.8. Cells then were dynamically monitored and change in fluorescence was quantified using Gen5 software (Biotek™). Pretreatment of 10 μM OGM2 for 4 hours was used. Each well was only assayed once at the correct time interval after inhibitor removal.\nas §1\nAdditional experiments, OGM2 resynthesized and used (due to its submicromolar potency and GPR68 specificity) were performed. See FIG. 3A (HNMR of resynthesis of OGM2) and FIG. 3B (LCMS of resynthesis of OGM2). To test the possibility of OGM2 being an irreversible inhibitor, Chem1-OGR1 cells (Millipore™) were incubated with 10 μM OGM2 for 4 hours, and after removing the compound stimulated with pH 6.4 medium. […] Time till 50% max ˜52 minutes. The signal returned back towards baseline uninhibited levels in a rapid and time-dependent manner."}, "U87 glioblastoma cells": {"tested_on": "U87 glioblastoma cells", "test": "calcium release on acidification in U87 cells (Fluo-8)", "format": "cell-based", "details": "media pH6.4, Fluo-8", "from_the_text": "GPR68 is known to signal through Gq which results in a calcium flux out of the Endoplasmic reticulum. U87 glioblastoma cells were stained, using a calcium-sensitive vital dye Fluo-8, and stimulated with acidification of the media to pH6.4. The cells respond to the acidification with a burst of calcium release, this is inhibited by OGM2."}, "A2058 melanoma cell line": {"tested_on": "A2058 melanoma cell line", "test": "scratch assay for migration, A2058", "format": "cell-based, human", "details": "OGM 5 μM, EIPA 10 μM, 20 hours", "procedure": "(§2) Cells were grown to confluence and the cells were denuded with a P200 tip. A medium change was done to add fresh medium, remove loose cells and add compounds OGM (5 μM) and EIPA (10 μM). The area of the scratch was observed 20 hours later.\n(§3) Since there are numerous parallels are found between neural crest cells and cancer during migration, we examined whether OGM could inhibit the migration of cells in human melanoma cell lines (Oppitz et al., 2007; Schriek et al., 2005; Sinnberg et al., 2018). […] A2058, MeWo and WM115 cells were grown to confluence and a stripe of cells were denuded with a p200 pipette tip “scratch” and rinsed with PBS. Cells were treated with OGM or EIPA, or DMSO and incubated in low serum media. Imaging was done at 30 minutes after “scratch” and then 20 hours afterwards. Areas were then measured and normalized to the initial area.\n(§4) Previous studies with the MV3 melanoma cell line have shown that disruption of proton efflux with EIPA inhibition of NHE1 can also reduce melanoma motility (Ludwig et al., 2013; Schneider et al., 2009; Stock et al., 2007, 2005; Stüwe et al., 2007). […] Although the expression of GPR68 and other proton-sensing receptors have been characterized in various skin cancers (Merkel cell carcinoma, dermatofibrosarcoma protuberans, atypical fibroxanthoma, and pleomorphic dermal sarcoma), expression in melanoma cell lines has not investigated (Nassios et al., 2019)."}, "MeWo melanoma cell line": {"tested_on": "MeWo melanoma cell line", "test": "scratch assay for migration, MeWo", "format": "cell-based, human", "details": "OGM 5 μM, EIPA 10 μM, 20 hours", "procedure": "as §2, §3, §4"}, "WM115 melanoma cell line": {"tested_on": "WM115 melanoma cell line", "test": "scratch assay for migration, WM115", "format": "cell-based, human", "details": "OGM 5 μM, EIPA 10 μM, 20 hours", "procedure": "as §2, §3, §4"}, "[3]": {"tested_on": "U87 glioblastoma spheroids", "test": "matrix invasion of U87 spheroids in Matrigel, acidified media", "format": "cell-based", "from_the_text": "U87 glioblastoma spheroids were formed in low attachment round bottom plates for 3 days. Spheroids were then covered in Matrigel™, which was allowed to polymerize before treatment with acidified media with or without OGM2. Acidification increased the degree of matrix invasion which is attenuated by OGM2."}, "Spheroids": {"tested_on": "Spheroids", "test": "pH dependent tumoroid growth", "format": "cell-based", "details": "pH 6.2 vs pH 8 buffered media, 3 days", "procedure": "Spheroids were formed over 3 days using low attachment 96-well round bottom plates and then treated with DMSO or OGM2 in either pH 8 buffered media or pH 6.2 buffered media and grown for 3 days. The size (area) of spheroids was measured in relative area units. […] This increase in growth was abrogated by OGM2."}, "PANC02 pancreatic cells [4]": {"tested_on": "PANC02 pancreatic cells", "test": "PANC02 scratch migration", "format": "cell-based", "details": "10 μM, 24 hours", "procedure": "In a second study, PANC02 pancreatic cells plated and grown to confluence. Using a P200 tip, cells were denuded and allowed to migrate for 24 hours in DMSO or 10 μM OGM2 and imaged."}, "PANC02 pancreatic cells [5]": {"tested_on": "PANC02 pancreatic cells", "test": "PANC02 clonogenicity (crystal violet)", "format": "cell-based", "details": "7 days", "procedure": "In a third study, PANC02 pancreatic cells were plated at 400 cells per well in a 6-well plate and on the next day were treated with increasing concentrations of OGM2 for 7 days. The plate was fixed with formalin and stained with crystal violet."}, "A549 lung cancer cells [6]": {"tested_on": "A549 lung cancer cells", "test": "A549 viability (crystal violet)", "format": "cell-based", "details": "24 hours", "procedure": "A549 lung cancer cells were plated at different concentrations of cell per well in a 96-well plate. On the following day cells were treated with increasing doses of OGM2. Twenty-four hours later cells viability was assayed with crystal violet and normalized to untreated."}, "A549 lung cancer cells [7]": {"tested_on": "A549 lung cancer cells", "test": "A549 clonogenicity (crystal violet)", "format": "cell-based", "details": "8 days", "procedure": "A549 lung cancer cells were plated at 300 cells per well in a 6-well plate and on the next day were treated with increasing concentrations of OGM2 for 8 days. The plate was fixed with formalin and stained with crystal violet. See FIG. 25B for results at the indicated concentrations."}, "breast (MDA MB231)": {"tested_on": "breast (MDA MB231)", "test": "viability (cell titer blue), breast cancer cells", "format": "cell-based", "details": "MDA MB231, 72 hours", "procedure": "(§5) Multiple studies were conducted as discussed herein, but with different cancer type cohorts. Data was extracted from Gene expression omnibus using ProggeneV2. Briefly, probes were prepared using standard Affymetrix™ protocols, and hybridized to Affymetrix™ HG-U133A and HG-U133B arrays. The cohort was separated by High and low expression of GPR68 by above or below the median expression level. Survival of the cohorts was plotted in FIG. 26A. Survival of multiple cancer types including breast (MDA MB231), glioblastoma (U87), and Prostatic Neuroendocrine cancer (PNEC: PC3) is shown in FIG. 26B. Cells were plated in 96-well plates and then treated with increasing doses OGM2. Seventy-two hours later, survival was assayed with cell titer blue. Each cell line was normalized to DMSO treated control."}, "[8]": {"tested_on": "Prostatic Neuroendocrine cancer (PNEC: PC3)", "test": "viability (cell titer blue), prostate cancer cells", "format": "cell-based", "details": "PC3, 72 hours", "procedure": "as §5"}, "U87 cells": {"tested_on": "U87 cells", "test": "U87 viability with temozolomide plus OGM2", "format": "cell-based", "details": "0.5 μM or 5 μM OGM2 with increasing TMZ", "procedure": "U87 cells were treated with increasing concentrations of temozolomide (TMZ) without OGM2 or with 0.5 μM or 5 μM OGM2."}},
  "data": [
    {"compound": "CCc1ccc2c(c1)C1(NN=C(c3ccccc3)S1)C(=O)N2", "note": "(centres unmarked) [OGM2]", "values": [
      {"measurement": "EC50", "setting": "GPR68/OGR1", "value": 1350, "unit": "nM"},
      {"measurement": "IC50", "setting": "GPR68 [1]", "value": 710, "unit": "nM"},
      {"measurement": "recovery of GPR68 activity after washout", "setting": "GPR68 [2]; 10 μM for 4 hours, then removed", "value": "restored rapidly after washout of inhibitor"},
      {"measurement": "Time till 50% max (recovery of GPR68 activity)", "setting": "GPR68 [2]; after 10 μM for 4 hours, washout, pH 6.4 medium", "value": "~52", "unit": "min"},
      {"measurement": "calcium release in response to acidification", "setting": "U87 glioblastoma cells", "value": "inhibited"},
      {"measurement": "migration in scratch assay", "setting": "A2058 melanoma cell line", "value": "migrated significantly less"},
      {"measurement": "migration in scratch assay", "setting": "MeWo melanoma cell line", "value": "migrated significantly less"},
      {"measurement": "migration in scratch assay", "setting": "WM115 melanoma cell line", "value": "migrated significantly less"},
      {"measurement": "degree of matrix invasion", "setting": "[3]", "value": "attenuated"},
      {"measurement": "increase in spheroid growth at pH 6.2", "setting": "Spheroids", "value": "abrogated"},
      {"measurement": "migration", "setting": "PANC02 pancreatic cells [4]", "value": "significantly reduced migration"},
      {"measurement": "clonogenicity", "setting": "PANC02 pancreatic cells [5]", "value": "reduced the clonogenicity"},
      {"measurement": "toxicity (cell viability)", "setting": "A549 lung cancer cells [6]", "value": "relatively High doses of OGM2 are necessary for toxicity"},
      {"measurement": "clonogenicity", "setting": "A549 lung cancer cells [7]", "value": "reduced the clonogenicity"},
      {"measurement": "viability", "setting": "breast (MDA MB231)", "value": "Reduces Viability"},
      {"measurement": "viability", "setting": "[8]", "value": "Reduces Viability"},
      {"measurement": "cell viability in combination with temozolomide (TMZ)", "setting": "U87 cells", "value": "synergistic result"}
    ]}
  ]
}
